Experimental findings from patent publication US6528456B2, “Herbicidal 2-pyrazolyl-6-aryloxypyri(mi)dines” (BASF Aktiengesellschaft, priority 1999, dated 2003) are described below.

What all share (assay type): in vivo
One assay deals with Triticum aestivum. In words: Post-emergence test. Particulars: 2-4 weeks after treatment. As for the experimental part:
(§1) To evaluate their herbicidal activity, compounds according to the invention are tested using a representative range of plants: TRZAW Triticum aestivum [table] […] These acetone solutions are diluted with water and the resulting formulations applied at dosage levels equivalent of about 0.1 to 0. 4 kg per hectare of test compound per pot. After spraying the plants are placed on greenhouse benches and are cared for in the usual manner, commensurate with conventional greenhouse practices. From 2 to 4 weeks after treatment, the seedling plants are examined and rated according to the rating system provided above.

The subject of a further assay is Hordeum vulgare. In words: Pre-emergence test. The note with it: 3 weeks after treatment. How it is done: (§2) To evaluate their herbicidal activity, compounds according to the invention are tested using a representative range of plants: HORVW Hordeum vulgare The pre-emergence tests involve spraying a liquid formulation of the compound onto the soil in which the seeds of the plant species mentioned above has recently been sown. The soil used in the tests is a prepared horticultural loam. The formulations used in the tests are prepared from solutions of the test compounds in acetone containing 0.4% by weight of an alkylphenol/ethylene oxide condensate available under the trade mark TRITON X-155. These acetone solutions are diluted with water and the resulting formulations applied at dosage levels corresponding to 0.025 kg, 0.100 kg or 0.400 kg of active material per hectare in a volume equivalent to 900 litres per hectare. In these tests untreated sown soil are used as controls. From 2 to 4 weeks after treatment, the tests are terminated and each pot is examined and rated according to the rating system set forth below: [table]

The test system of another assay is Echinochloa crus-galli. In words: Pre-emergence test. Particulars: 3 weeks after treatment. How it is done: as §2, with “ECHCG Echinochloa crus-galli” for “HORVW Hordeum vulgare”
The next assay deals with Alopecurus myosuroides. In words: Post-emergence test. Particulars: 2-4 weeks after treatment. How it is done: as §1, with “ALOMY Alopecurus myosuroides” for “TRZAW Triticum aestivum”
The next assay has as its system Abutilon theophrasti. In words: Post-emergence test. The note with it: 2-4 weeks after treatment. How it is done:
as §1, with “ABUTH Abutilon theophrasti” for “TRZAW Triticum aestivum”

The next assay deals with Zea mays. In words: Post-emergence test. The note with it: 2-4 weeks after treatment. How it is done:
as §1, with “ZEAMX Zea mays” for “TRZAW Triticum aestivum”

For another assay, the system named is Ipomoea hederacea. In words: Post-emergence test. Particulars: 2-4 weeks after treatment. How it is done:
as §1, with “IPHOE Ipomoea hederacea” for “TRZAW Triticum aestivum”

A further assay deals with Setaria viridis. In words: Post-emergence test. The note with it: 2-4 weeks after treatment. How it is done:
as §1, with “SETVI Setaria viridis” for “TRZAW Triticum aestivum”

For another assay, the system named is Galium aparine. In words: Post-emergence test. The note with it: 2-4 weeks after treatment. As for the experimental part:
as §1, with “GALAP Galium aparine” for “TRZAW Triticum aestivum”

As for `Cc1cc(Oc2cccc(C(F)(F)F)c2)nc(-c2cc(C(F)(F)F)nn2C)c1` [Example 63], the TRZAW herbicidal rating in the assay on Triticum aestivum (0.1 kg/ha) and with Triticum aestivum (0.4 kg/ha) was 3 (3 - Moderate effect) throughout. The HORVW herbicidal rating in the assay on Hordeum vulgare (0.025 kg/ha) is given as 0 (0 - No effect); with Hordeum vulgare (0.100 kg/ha) it was 0 (0 - No effect); in the assay on Hordeum vulgare (0.400 kg/ha), 2 (2 - Slight effect). Further, the ECHCG herbicidal rating was 0 (0 - No effect) in the assay with Echinochloa crus-galli (0.025 kg/ha), 0 (0 - No effect) in the assay on Echinochloa crus-galli (0.100 kg/ha) and 4 (4 - Injury) in the assay on Echinochloa crus-galli (0.400 kg/ha). Further, the results for the ALOMY herbicidal rating in the assay on Alopecurus myosuroides (0.1 kg/ha) and in the assay on Alopecurus myosuroides (0.4 kg/ha) were 1 (1 - Trace effect) and 2 (2 - Slight effect), respectively. Further, the ABUTH herbicidal rating in the assay with Abutilon theophrasti (0.1 kg/ha) and in the assay on Abutilon theophrasti (0.4 kg/ha) was 4 (4 - Injury) throughout. For the same compound, the ZEAMX herbicidal rating is reported as 2 (2 - Slight effect) in the assay with Zea mays (0.1 kg/ha) and 3 (3 - Moderate effect) in the assay on Zea mays (0.4 kg/ha). Further, the IPOHE herbicidal rating with Ipomoea hederacea (0.1 kg/ha) and in the assay on Ipomoea hederacea (0.4 kg/ha) was 8 (8 - Approaching complete kill) each time. Besides, the SETVI herbicidal rating is reported as 3 (3 - Moderate effect) in the assay on Setaria viridis (0.1 kg/ha) and 6 (6 - Herbicidal effect) in the assay on Setaria viridis (0.4 kg/ha). Besides, the GALAP herbicidal rating with Galium aparine (0.1 kg/ha) and in the assay with Galium aparine (0.4 kg/ha) was 5 (5 - Definite injury) in each case.
`Cc1cnc(-c2cc(C(F)(F)F)nn2C)nc1Oc1cc(C(F)(F)F)nn1C` [Example 4, 2-(1-Methyl-3-trifluoromethylpyrazol-5-yl)-6-(1-methyl-3-trifluoromethylpyrazol-5-yloxy)-5-methylpyrimidine]: the TRZAW herbicidal rating with Triticum aestivum (0.1 kg/ha) is recorded as 3 (3 - Moderate effect); with Triticum aestivum (0.4 kg/ha) it was 5 (5 - Definite injury). Besides, the HORVW herbicidal rating with Hordeum vulgare (0.025 kg/ha) was 2 (2 - Slight effect); in the assay with Hordeum vulgare (0.100 kg/ha), 4 (4 - Injury); in the assay with Hordeum vulgare (0.400 kg/ha), 5 (5 - Definite injury). Also, the ECHCG herbicidal rating is 4 (4 - Injury) with Echinochloa crus-galli (0.025 kg/ha), 7 (7 - Good herbicidal effect) with Echinochloa crus-galli (0.100 kg/ha) and 8 (8 - Approaching complete kill) in the assay on Echinochloa crus-galli (0.400 kg/ha). Besides, the ALOMY herbicidal rating in the assay with Alopecurus myosuroides (0.1 kg/ha) is listed as 5 (5 - Definite injury); in the assay on Alopecurus myosuroides (0.4 kg/ha), 7 (7 - Good herbicidal effect). Also, the ABUTH herbicidal rating in the assay with Abutilon theophrasti (0.1 kg/ha) is on record as 6 (6 - Herbicidal effect); with Abutilon theophrasti (0.4 kg/ha), 7 (7 - Good herbicidal effect). Also, the ZEAMX herbicidal rating in the assay with Zea mays (0.1 kg/ha) was 2 (2 - Slight effect); in the assay on Zea mays (0.4 kg/ha) it was 4 (4 - Injury). The IPOHE herbicidal rating in the assay on Ipomoea hederacea (0.1 kg/ha) and in the assay on Ipomoea hederacea (0.4 kg/ha) was 9 (9 - Complete kill) throughout. Also, the SETVI herbicidal rating with Setaria viridis (0.1 kg/ha) and in the assay with Setaria viridis (0.4 kg/ha) was 9 (9 - Complete kill) in each case. The GALAP herbicidal rating was 8 (8 - Approaching complete kill) in the assay on Galium aparine (0.1 kg/ha) and 9 (9 - Complete kill) in the assay with Galium aparine (0.4 kg/ha).
In the case of `Cn1nc(C(F)(F)F)cc1Oc1cc(C#N)cc(-c2cc(C(F)(F)F)nn2C)n1` [Example 3, 4-Cyano-2-(1-methyl-3-trifluoromethylpyrazol-5-yloxy)-6-(1-methyl-3-trifluoromethylpyrazol-5-yl)pyridine], the TRZAW herbicidal rating is recorded as 3 (3 - Moderate effect) in the assay with Triticum aestivum (0.1 kg/ha) and 4 (4 - Injury) in the assay on Triticum aestivum (0.4 kg/ha). The HORVW herbicidal rating with Hordeum vulgare (0.025 kg/ha) is reported as 2 (2 - Slight effect); with Hordeum vulgare (0.100 kg/ha) it was 3 (3 - Moderate effect); with Hordeum vulgare (0.400 kg/ha), 5 (5 - Definite injury). In addition, the ECHCG herbicidal rating in the assay on Echinochloa crus-galli (0.025 kg/ha) is given as 2 (2 - Slight effect); in the assay on Echinochloa crus-galli (0.100 kg/ha), 4 (4 - Injury); in the assay on Echinochloa crus-galli (0.400 kg/ha), 4 (4 - Injury). Further, the ALOMY herbicidal rating in the assay on Alopecurus myosuroides (0.1 kg/ha) is given as 3 (3 - Moderate effect); in the assay with Alopecurus myosuroides (0.4 kg/ha), 4 (4 - Injury). Moreover, the results for the ABUTH herbicidal rating in the assay with Abutilon theophrasti (0.1 kg/ha) and in the assay with Abutilon theophrasti (0.4 kg/ha) were 4 (4 - Injury) and 5 (5 - Definite injury), respectively. Also, the figures for the ZEAMX herbicidal rating in the assay with Zea mays (0.1 kg/ha) and in the assay with Zea mays (0.4 kg/ha) were 2 (2 - Slight effect) and 4 (4 - Injury), respectively. Besides, the IPOHE herbicidal rating in the assay with Ipomoea hederacea (0.1 kg/ha) was 6 (6 - Herbicidal effect); in the assay with Ipomoea hederacea (0.4 kg/ha) it was 8 (8 - Approaching complete kill). For the same compound, the results for the SETVI herbicidal rating in the assay with Setaria viridis (0.1 kg/ha) and in the assay on Setaria viridis (0.4 kg/ha) were 5 (5 - Definite injury) and 7 (7 - Good herbicidal effect), respectively. Further, the GALAP herbicidal rating is on record as 3 (3 - Moderate effect) with Galium aparine (0.1 kg/ha) and 9 (9 - Complete kill) in the assay with Galium aparine (0.4 kg/ha).
